Experiments:
female NMRI-albino mice = experiment: Acute toxicity, intravenous, mice; assay type: in vivo; settings: within 24 hours
[1] = Acute toxicity, intravenous, mice; assay type: in vivo; settings: mouse, in vivo; intravenous, within 24 hours; read-out: Evaluated LD50-range
[2] = test system: isolated guinea pig hearts; experiment: Experiments on Langendorff hearts (coronary flowthrough, inotropism, frequency); settings: Cavia porcellus, read-out: flowthrough, percentage change with regard to the initial value
Description: After reaching the stationary state in the 30th minute, the hearts were each perfused with 50 ml. tyrode solution with a content of test substance of, in each case, 25 μg./ml. Each test substance was tested on 3-6 hearts.
In each case, there was measured the inotropism, the flowthrough and the frequency, whereby the values given in Table I are average values of the percentage changes in comparison with the initial values.

narcotised guinea pigs = experiment: Blood pressure experiments on guinea pigs, i.v.; assay type: in vivo, guinea pig; settings: for blood pressure before: before administration
mongrel cats [3] = experiment: Inotropic and heart-circulatory effectiveness on narcotised cats, intraduodenal; assay type: in vivo, cat; settings: 5 mg/kg intraduodenal
mongrel cats [4] = experiment: Inotropic and heart-circulatory effectiveness on narcotised cats, intravenous; assay type: in vivo, cat; settings: 6 animals
[5] = 0.25 mg/kg i.v., before administration

For `O=[N+]([O-])O[C@H]1CO[C@H]2[C@@H]1OC[C@@H]2N1CCCCC1` [15 b], the Frequency of death (female NMRI-albino mice; 50 mg/kg i.v.) was 0/3, the Frequency of death (female NMRI-albino mice; 100 mg/kg i.v.) was 2/3 and the Frequency of death (female NMRI-albino mice; 200 mg/kg i.v.) was 6/6. The LD50 at 24 h [1] was 50 to 100 mg/kg, the activation at 25 µg/mL [2] was 34% and the blood pressure after (narcotised guinea pigs; 0.25 mg/kg i.v.) was 63.00 ± 1.83 mm.Hg. The “blood pressure Δ” value (narcotised guinea pigs; 0.25 mg/kg i.v.) was -9.00 mm.Hg, the blood pressure before (narcotised guinea pigs; 0.25 mg/kg i.v.) was 72.00 ± 2.12 mm.Hg and the blood pressure after (narcotised guinea pigs; 1.00 mg/kg i.v.) was 53.50 ± 1.71 mm.Hg. The “blood pressure Δ” value (narcotised guinea pigs; 1.00 mg/kg i.v.) was -17.75 mm.Hg, the blood pressure after (narcotised guinea pigs; 2.50 mg/kg i.v.) was 49.00 ± 2.48 mm.Hg and the “blood pressure Δ” value (narcotised guinea pigs; 2.50 mg/kg i.v.) was -23.00 mm.Hg.
For `O=[N+]([O-])O[C@H]1CO[C@H]2[C@@H]1OC[C@@H]2N1CCOCC1` [16 b], the Frequency of death (female NMRI-albino mice; 200 mg/kg i.v.) was 0/3, the LD50 at 24 h [1] was over 200 mg/kg and the activation at 25 µg/mL [2] was 14.7%. For the same compound, the blood pressure after (narcotised guinea pigs; 0.25 mg/kg i.v.) was 59.50 ± 5.63 mm.Hg, the “blood pressure Δ” value (narcotised guinea pigs; 0.25 mg/kg i.v.) was -9.25 mm.Hg and the blood pressure before (narcotised guinea pigs; 0.25 mg/kg i.v.) was 68.75 ± 3.07 mm.Hg. The blood pressure after (narcotised guinea pigs; 1.00 mg/kg i.v.) was 48.25 ± 4.80 mm.Hg, the “blood pressure Δ” value (narcotised guinea pigs; 1.00 mg/kg i.v.) was -19.75 mm.Hg and the blood pressure after (narcotised guinea pigs; 2.50 mg/kg i.v.) was 43.25 ± 4.91 mm.Hg. For the same compound, the “blood pressure Δ” value (narcotised guinea pigs; 2.50 mg/kg i.v.) was -23.50 mm.Hg.
In the case of `N[C@@H]1CO[C@H]2[C@@H]1OC[C@@H]2O[N+](=O)[O-]` [2 b], the Frequency of death (female NMRI-albino mice; 200 mg/kg i.v.) was 0/3, the LD50 at 24 h [1] was over 200 mg/kg and the activation at 25 µg/mL [2] was 25.9%. The blood pressure after (narcotised guinea pigs; 0.25 mg/kg i.v.) was 50.25 ± 8.19 mm.Hg, the “blood pressure Δ” value (narcotised guinea pigs; 0.25 mg/kg i.v.) was -5.75 mm.Hg and the blood pressure before (narcotised guinea pigs; 0.25 mg/kg i.v.) was 56.00 ± 7.91 mm.Hg. The blood pressure after (narcotised guinea pigs; 1.00 mg/kg i.v.) was 41.50 ± 4.66 mm.Hg, the “blood pressure Δ” value (narcotised guinea pigs; 1.00 mg/kg i.v.) was -14.25 mm.Hg and the blood pressure after (narcotised guinea pigs; 2.50 mg/kg i.v.) was 31.75 ± 3.09 mm.Hg. The “blood pressure Δ” value (narcotised guinea pigs; 2.50 mg/kg i.v.) was -19.50 mm.Hg.
With `O=[N+]([O-])O[C@H]1CO[C@H]2[C@@H]1OC[C@@H]2NCC(O)COc1cccc(C(F)(F)F)c1` (stereo partly drawn) [Example 52, 5-[2-Hydroxy-3-(3-trifluoromethylphenoxy)-propylamino]-5-desoxy-1.4;3.6-dianhydro-L-iditol 2-nitrate] the blood pressure (mongrel cats [3]; 0 min after admin.) was 113.8 ± 5.8 mm.Hg, the “dp/dt (inotropism)” value (mongrel cats [3]; 0 min after admin.) was 6540 ± 631 mm.Hg/sec and the heart frequency (mongrel cats [3]; 0 min after admin.) was 209.6 ± 15.7 min⁻¹. For the same compound, the blood pressure (mongrel cats [3]; 10 min after admin.) was 100.4 mm.Hg, the “blood pressure Δ” value (mongrel cats [3]; 10 min after admin.) was -13.4 mm.Hg and the “dp/dt (inotropism)” value (mongrel cats [3]; 10 min after admin.) was 6200 ± 374 mm.Hg/sec. For the same compound, the “dp/dt (inotropism) Δ” value (mongrel cats [3]; 10 min after admin.) was -340 mm.Hg/sec, the heart frequency (mongrel cats [3]; 10 min after admin.) was 212.4 ± 13.8 min⁻¹ and the blood pressure (mongrel cats [3]; 30 min after admin.) was 95.6 ± 9.9 mm.Hg. The “blood pressure Δ” value (mongrel cats [3]; 30 min after admin.) was -18.2 mm.Hg, the “dp/dt (inotropism)” value (mongrel cats [3]; 30 min after admin.) was 6120 ± 270 mm.Hg/sec and the “dp/dt (inotropism) Δ” value (mongrel cats [3]; 30 min after admin.) was -440 mm.Hg/sec. The heart frequency (mongrel cats [3]; 30 min after admin.) was 212.8 ± 13.1 min⁻¹, the blood pressure (mongrel cats [3]; 60 min after admin.) was 95.8 ± 8.0 mm.Hg and the “blood pressure Δ” value (mongrel cats [3]; 60 min after admin.) was -18.0 mm.Hg. For the same compound, the “dp/dt (inotropism)” value (mongrel cats [3]; 60 min after admin.) was 5480 ± 314 mm.Hg/sec, the “dp/dt (inotropism) Δ” value (mongrel cats [3]; 60 min after admin.) was -1060 mm.Hg/sec and the heart frequency (mongrel cats [3]; 60 min after admin.) was 216.0 ± 12.3 min⁻¹. The blood pressure (mongrel cats [3]; 120 min after admin.) was 98.4 ± 9.0 mm.Hg, the “blood pressure Δ” value (mongrel cats [3]; 120 min after admin.) was -15.4 mm.Hg and the “dp/dt (inotropism)” value (mongrel cats [3]; 120 min after admin.) was 5460 ± 768 mm.Hg/sec. For the same compound, the “dp/dt (inotropism) Δ” value (mongrel cats [3]; 120 min after admin.) was -1080 mm.Hg/sec, the heart frequency (mongrel cats [3]; 120 min after admin.) was 214.4 ± 11.6 min⁻¹ and the Frequency of death (female NMRI-albino mice; 100 mg/kg i.v.) was 1/3. The Frequency of death (female NMRI-albino mice; 200 mg/kg i.v.) was 6/6, the LD50 at 24 h [1] was 100 to 200 mg/kg and the blood pressure before (mongrel cats [4]; [5]) was 91.7 mm.Hg. The “dp/dt (inotropism) before” value (mongrel cats [4]; [5]) was 6150 mm.Hg/sec, the heart frequency before (mongrel cats [4]; [5]) was 216.7 min⁻¹ and the “blood pressure WD” value (mongrel cats [4]; 0.25 mg/kg i.v.) was 5.6 min. For the same compound, the blood pressure after (mongrel cats [4]; 0.25 mg/kg i.v.) was 77.2 mm.Hg, the “blood pressure Δ” value (mongrel cats [4]; 0.25 mg/kg i.v.) was -14.5 mm.Hg and the “dp/dt (inotropism) after” value (mongrel cats [4]; 0.25 mg/kg i.v.) was 5517 mm.Hg/sec. The “dp/dt (inotropism) Δ” value (mongrel cats [4]; 0.25 mg/kg i.v.) was -633 mm.Hg/sec, the “dp/dt WD” value (mongrel cats [4]; 0.25 mg/kg i.v.) was 4.2 min and the heart frequency after (mongrel cats [4]; 0.25 mg/kg i.v.) was 216.7 min⁻¹. For the same compound, the “heart frequency Δ” value (mongrel cats [4]; 0.25 mg/kg i.v.) was 0 min⁻¹, the “blood pressure WD” value (mongrel cats [4]; 0.50 mg/kg i.v.) was 11.7 min and the blood pressure after (mongrel cats [4]; 0.50 mg/kg i.v.) was 74.8 mm.Hg. For the same compound, the “blood pressure Δ” value (mongrel cats [4]; 0.50 mg/kg i.v.) was -19.9 mm.Hg, the “dp/dt (inotropism) after” value (mongrel cats [4]; 0.50 mg/kg i.v.) was 5133 mm.Hg/sec and the “dp/dt (inotropism) Δ” value (mongrel cats [4]; 0.50 mg/kg i.v.) was -850 mm.Hg/sec. For the same compound, the “dp/dt WD” value (mongrel cats [4]; 0.50 mg/kg i.v.) was 10.5 min, the heart frequency after (mongrel cats [4]; 0.50 mg/kg i.v.) was 217.0 min⁻¹ and the “heart frequency Δ” value (mongrel cats [4]; 0.50 mg/kg i.v.) was 0 min⁻¹. The “blood pressure WD” value (mongrel cats [4]; 1.00 mg/kg i.v.) was 14.7 min, the blood pressure after (mongrel cats [4]; 1.00 mg/kg i.v.) was 69.2 mm.Hg and the “blood pressure Δ” value (mongrel cats [4]; 1.00 mg/kg i.v.) was -26.5 mm.Hg. For the same compound, the “dp/dt (inotropism) after” value (mongrel cats [4]; 1.00 mg/kg i.v.) was 4250 mm.Hg/sec, the “dp/dt (inotropism) Δ” value (mongrel cats [4]; 1.00 mg/kg i.v.) was -1333 mm.Hg/sec and the “dp/dt WD” value (mongrel cats [4]; 1.00 mg/kg i.v.) was 15.3 min. For the same compound, the heart frequency after (mongrel cats [4]; 1.00 mg/kg i.v.) was 217.3 min⁻¹, the “heart frequency Δ” value (mongrel cats [4]; 1.00 mg/kg i.v.) was -1.0 min⁻¹ and the “blood pressure WD” value (mongrel cats [4]; 2.50 mg/kg i.v.) was over 10 min. The blood pressure after (mongrel cats [4]; 2.50 mg/kg i.v.) was 60.5 mm.Hg, the “blood pressure Δ” value (mongrel cats [4]; 2.50 mg/kg i.v.) was -34.5 mm.Hg and the “dp/dt (inotropism) after” value (mongrel cats [4]; 2.50 mg/kg i.v.) was 2733 mm.Hg/sec. For the same compound, the “dp/dt (inotropism) Δ” value (mongrel cats [4]; 2.50 mg/kg i.v.) was -2500 mm.Hg/sec, the “dp/dt WD” value (mongrel cats [4]; 2.50 mg/kg i.v.) was over 10 min and the heart frequency after (mongrel cats [4]; 2.50 mg/kg i.v.) was 204.0 min⁻¹. The “heart frequency Δ” value (mongrel cats [4]; 2.50 mg/kg i.v.) was -14.3 min⁻¹, the activation at 25 µg/mL [2] was 214% and the blood pressure after (narcotised guinea pigs; 0.25 mg/kg i.v.) was 60.50 ± 1.32 mm.Hg. The “blood pressure Δ” value (narcotised guinea pigs; 0.25 mg/kg i.v.) was -5.00 mm.Hg, the blood pressure before (narcotised guinea pigs; 0.25 mg/kg i.v.) was 65.50 ± 1.50 mm.Hg and the blood pressure after (narcotised guinea pigs; 1.00 mg/kg i.v.) was 49.25 ± 4.37 mm.Hg. The “blood pressure Δ” value (narcotised guinea pigs; 1.00 mg/kg i.v.) was -11.75 mm.Hg, the blood pressure after (narcotised guinea pigs; 2.50 mg/kg i.v.) was 39.00 ± 4.38 mm.Hg and the “blood pressure Δ” value (narcotised guinea pigs; 2.50 mg/kg i.v.) was -17.75 mm.Hg.

Source: patent US4363805A, “Aminodesoxy-1.4;3.6-dianhydrohexitol nitrates and pharmaceutical composition” (Firma Willmar Schwabe, priority 1980, dated 1982)
